Patent US20240343733A1, “COMPOUNDS FOR TARGETING DEGRADATION OF IRAK4 PROTEINS” (BIOGEN MA INC., priority 2021, published 2024)

Each compound was assayed against T1, IRAK4 (Homo sapiens, UniProt Q9NWZ3) (assay: IRAK4 Degradation Assay, HiBiT Method). Conditions: 293T cells expressing HiBiT-tagged IRAK4, 6 hours.
T1 construct: 293Tcells expressing HiBiT-tagged IRAK4 were then added into 384-well plates
T1 sequence (Q9NWZ3 1-460): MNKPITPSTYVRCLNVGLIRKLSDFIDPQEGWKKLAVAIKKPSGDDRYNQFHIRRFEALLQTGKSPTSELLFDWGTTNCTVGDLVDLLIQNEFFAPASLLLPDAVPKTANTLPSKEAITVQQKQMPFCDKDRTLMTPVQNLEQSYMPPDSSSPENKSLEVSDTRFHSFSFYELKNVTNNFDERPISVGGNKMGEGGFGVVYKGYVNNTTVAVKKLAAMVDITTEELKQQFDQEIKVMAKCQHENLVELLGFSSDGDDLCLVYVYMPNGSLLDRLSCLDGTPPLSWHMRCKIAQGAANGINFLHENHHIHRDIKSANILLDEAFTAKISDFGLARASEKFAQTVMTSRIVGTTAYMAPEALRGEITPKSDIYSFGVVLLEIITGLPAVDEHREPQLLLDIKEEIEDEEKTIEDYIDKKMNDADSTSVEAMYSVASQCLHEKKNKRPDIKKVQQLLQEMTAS
Assay type: cell-based
Description: Assay 1. IRAK4 Degradation Assay, HiBiT Method
Selected compounds were tested in an IRAK4 degradation assay using the HiBiT Method.
Phenol red-free Dulbecco's modified Eagle medium (DMEM) and fetal bovine serum (FBS) were purchased from Gibco (Grand Island, NY, USA). The Nano-Glo® HiBiT Lytic Assay System was purchased from Promega (Madison, WI, USA). Cell culture flasks and 384-well microplates were acquired from VWR (Radnor, PA, USA). The 293Tcell line was engineered by knocking-in a HiBiT fusion tag into the C-terminal of the IRAK4 gene in 293T cells (Synthego, Redwood City, CA, USA).
IRAK4 degradation was measured via the quantification of luminescent signals using the Nano-Glo® HiBiT Lytic Assay kit. Test compounds were added to 384-well plates in duplicate using an 11-point half-log dilution series, with the highest dose set at […]. 293Tcells expressing HiBiT-tagged IRAK4 were then added into 384-well plates at a cell density of 10,000 cells per well. The plates were kept at 37° C. with 5% CO2 for 6 hours. Cells that were treated only with DMSO served as the negative control; wells that contained only assay media served as the background control. After the 6-hour incubation, Nano-Glo® HiBiT Lytic Assay reagents were added to the cells. Luminescence was acquired using an EnVision™ Multilabel Reader (PerkinElmer, Santa Clara, CA, USA).

| SMILES | DC50 |
| --- | --- |
| CC(C)Oc1cc2nn(C3CCN(C(=O)CC4(O)CCN(c5ccc(NC6CCC(=O)NC6=O)cc5)CC4)CC3)cc2cc1C(=O)Nc1cccc(C(F)(F)F)n1 (stereo not shown) [Example 58, 2-[1-[2-[1-[4-[(2,6-dioxo-3-piperidyl)amino]phenyl]-4-hydroxy-4-piperidyl]acetyl]-4-piperidyl]-6-isopropoxy-N-[6-(trifluoromethyl)-2-pyridyl]indazole-5-carboxamide] | 10 to 100 nM |
| CC(C)Oc1cc2nc(C3CCN(C(=O)CC4(O)CCN(c5cc(Cl)c(NC6CCC(=O)NC6=O)cc5Cl)CC4)CC3)cn2cc1C(=O)Nc1cccc(C(F)F)n1 (stereo not shown) [Example 75, 2-[1-[2-[1-[2,5-dichloro-4-[(2,6-dioxo-3-piperidyl)amino]phenyl]-4-hydroxy-4-piperidyl]acetyl]-4-piperidyl]-N-[6-(difluoromethyl)-2-pyridyl]-7-isopropoxy-imidazo[1,2-a]pyridine-6-carboxamide] | 10 to 100 nM |
| CO[C@H]1CN(C[C@H]2CC[C@H](n3cc4cc(C(=O)Nc5cccn(C6CC6)c5=O)c(OC(C)C)cc4n3)CC2)CC[C@H]1c1ccc2c(N3CCC(=O)NC3=O)nn(C)c2c1 [Example 140, N-(1-cyclopropyl-2-oxo-1,2-dihydropyridin-3-yl)-2-((1R,4r)-4-(((3R,4S)-4-(3-(2,4-dioxotetrahydropyrimidin-1(2H)-yl)-1-methyl-1H-indazol-6-yl)-3-methoxypiperidin-1-yl)methyl)cyclohexyl)-6-isopropoxy-2H-indazole-5-carboxamide] | < 10 nM |
| CC(C)Oc1cc2nc(C3(C)CCN(CC(=O)N4CCC(c5ccc(NC6CCC(=O)NC6=O)cc5)CC4)CC3)cn2cc1C(=O)Nc1cccc(C(F)(F)F)n1 (stereo not shown) [Example 95, 2-[1-[2-[4-[4-[(2,6-dioxo-3-piperidyl)amino]phenyl]-1-piperidyl]-2-oxo-ethyl]-4-methyl-4-piperidyl]-7-isopropoxy-N-[6-(trifluoromethyl)-2-pyridyl]imidazo[1,2-a]pyridine-6-carboxamide] | 100 to 500 nM |
| CC(C)Oc1cc2nc(C3CCN(C(=O)CN4CCC(c5ccc(C6CCC(=O)NC6=O)cc5F)CC4)CC3)cn2cc1C(=O)Nc1cccc(C(F)F)n1 (stereo not shown) [Example 80, N-[6-(difluoromethyl)-2-pyridyl]-2-[1-[2-[4-[4-(2,6-dioxo-3-piperidyl)-2-fluoro-phenyl]-1-piperidyl]acetyl]-4-piperidyl]-7-isopropoxy-imidazo[1,2-a]pyridine-6-carboxamide] | 10 to 100 nM |
| CO[C@H]1CN(C[C@H]2CC[C@H](c3cn4cc(C(=O)Nc5cccn([C@H]6C[C@H]6F)c5=O)c(OC(C)C)cc4n3)CC2)CC[C@H]1c1ccc2c(N3CCC(=O)NC3=O)nn(C)c2c1 [Example 191] | < 10 nM |
| CC(C)Oc1cc2nn([C@H]3CC[C@H](CN4CCOC[C@H]4Cc4ccc(OC5CCC(=O)NC5=O)cc4)CC3)cc2cc1C(=O)Nc1cccn(C2CC2)c1=O (stereo partly drawn) [Example 127, N-(1-cyclopropyl-2-oxo-1,2-dihydropyridin-3-yl)-2-((S,4r)-4-(((3S)-3-(4-((2,6-dioxopiperidin-3-yl)oxy)benzyl)morpholino)methyl)cyclohexyl)-6-isopropoxy-2H-indazole-5-carboxamide] | 10 to 100 nM |
| CC(C)Oc1cc2nc([C@H]3CC[C@H](CN4CCC(c5ccc(C6CCC(=O)NC6=O)cc5F)CC4)CC3)cn2cc1C(=O)Nc1cccc(C(F)(F)F)n1 (stereo partly shown) [Example 6, 2-[4-[[4-[4-(2,6-dioxo-3-piperidyl)-2-fluoro-phenyl]-1-piperidyl]methyl]cyclohexyl]-7-isopropoxy-N-[6-(trifluoromethyl)-2-pyridyl]imidazo[1,2-a]pyridine-6-carboxamide] | 100 to 500 nM |
| CC(C)Oc1cc2nc(C3CCN(C(=O)CC4CC5(C4)CN(c4ccc(C6CCC(=O)NC6=O)cn4)C5)CC3)cn2cc1C(=O)Nc1cccn([C@H]2C[C@H]2F)c1=O (stereo partly drawn) [Example 183, 2-(1-(2-(2-(5-(2,6-dioxopiperidin-3-yl)pyridin-2-yl)-2-azaspiro[3.3]heptan-6-yl)acetyl)piperidin-4-yl)-N-(1-((1S,2R)-2-fluorocyclopropyl)-2-oxo-1,2-dihydropyridin-3-yl)-7-isopropoxyimidazo[1,2-a]pyridine-6-carboxamide] | < 10 nM |
| CC(C)Oc1cc2nc(C3CCN(C(=O)CC4(O)CCN(c5ccc(NC6CCC(=O)NC6=O)cc5)CC4)CC3)cn2cc1C(=O)Nc1cccc(C(F)(F)F)n1 (stereo not shown) [Example 72, 2-[1-[2-[1-[4-[(2,6-dioxo-3-piperidyl)amino]phenyl]-4-hydroxy-4-piperidyl]acetyl]-4-piperidyl]-7-isopropoxy-N-[6-(trifluoromethyl)-2-pyridyl]imidazo[1,2-a]pyridine-6-carboxamide] | 10 to 100 nM |
| CC(C)Oc1cc2nc(C3CCN(C(=O)CC4CCN(c5cnc(C6CCC(=O)NC6=O)cn5)CC4)CC3)cn2cc1C(=O)Nc1cccn([C@H]2C[C@H]2F)c1=O (stereo partly shown) [Example 189] | < 10 nM |
| CC(C)Oc1cc2nc([C@H]3CC[C@H](CN4CC5(CCN(c6ncc(N7CCC(=O)NC7=O)cc6F)CC5)C4)CC3)cn2cc1C(=O)Nc1cccn(C2CC2)c1=O [Example 190] | 10 to 100 nM |
| CC(C)Oc1cc2nc([C@H]3CC[C@H](CN4CCC(c5cccc(NC6CCC(=O)NC6=O)c5)CC4)CC3)cn2cc1C(=O)Nc1cccc(C(F)(F)F)n1 (stereo partly shown) [Example 12, 2-[4-[[4-[3-[(2,6-dioxo-3-piperidyl)amino]phenyl]-1-piperidyl]methyl]cyclohexyl]-7-isopropoxy-N-[6-(trifluoromethyl)-2-pyridyl]imidazo[1,2-a]pyridine-6-carboxamide] | 100 to 500 nM |
| CC(C)Oc1cc2nc([C@H]3CC[C@H](CN4CCC(c5ccc(NC6CCC(=O)NC6=O)cn5)CC4)CC3)cn2cc1C(=O)Nc1cccc(C(F)F)n1 (stereo partly shown) [Example 35, N-[6-(difluoromethyl)-2-pyridyl]-2-[4-[[4-[5-[(2,6-dioxo-3-piperidyl)amino]-2-pyridyl]-1-piperidyl]methyl]cyclohexyl]-7-isopropoxy-imidazo[1,2-a]pyridine-6-carboxamide] | 10 to 100 nM |
| CC(C)Oc1cc2nc([C@H]3CC[C@H](CN4CCC(c5ccc(NC6CCC(=O)NC6=O)cc5F)CC4)CC3)cn2cc1C(=O)Nc1cccc(C(F)F)n1 (stereo partly shown) [Example 18, N-[6-(difluoromethyl)-2-pyridyl]-2-[4-[[4-[4-[(2,6-dioxo-3-piperidyl)amino]-2-fluoro-phenyl]-1-piperidyl]methyl]cyclohexyl]-7-isopropoxy-imidazo[1,2-a]pyridine-6-carboxamide] | 10 to 100 nM |
| CC(C)Oc1cc2nc(C3CCN(CC(=O)N4CCC(c5ccc(NC6CCC(=O)NC6=O)cc5)CC4)CC3)cn2cc1C(=O)Nc1ccc(F)cc1F (stereo not shown) [Example 94, N-(2,4-difluorophenyl)-2-[1-[2-[4-[4-[(2,6-dioxo-3-piperidyl)amino]phenyl]-1-piperidyl]-2-oxo-ethyl]-4-piperidyl]-7-isopropoxy-imidazo[1,2-a]pyridine-6-carboxamide] | 100 to 500 nM |
| CC(C)Oc1cc2nn([C@H]3CC[C@H](CN4CCCC(c5ccc(OC6CCC(=O)NC6=O)cc5)C4)CC3)cc2cc1C(=O)Nc1cccn(C2CC2)c1=O (stereo partly shown) [Example 118, N-(1-cyclopropyl-2-oxo-1,2-dihydropyridin-3-yl)-2-((1r,4r)-4-((3-(4-((2,6-dioxopiperidin-3-yl)oxy)phenyl)piperidin-1-yl)methyl)cyclohexyl)-6-isopropoxy-2H-indazole-5-carboxamide] | 10 to 100 nM |
| CC(C)Oc1cc2nn([C@H]3CC[C@H](CN4CC[C@@H](c5ccc6c(C7CCC(=O)NC7=O)nn(C)c6c5)[C@@H](O)C4)CC3)cc2cc1C(=O)Nc1cccn([C@H]2C[C@H]2F)c1=O (stereo partly drawn) [Example 133, 2-((1R,4S)-4-(((3R,4S)-4-(3-(2,6-dioxopiperidin-3-yl)-1-methyl-1H-indazol-6-yl)-3-hydroxypiperidin-1-yl)methyl)cyclohexyl)-N-(1-((1S,2R)-2-fluorocyclopropyl)-2-oxo-1,2-dihydropyridin-3-yl)-6-isopropoxy-2H-indazole-5-carboxamide] | < 10 nM |
| CC(C)Oc1cc2nc([C@H]3CC[C@H](CN4CCC(c5ccc6c(c5)n(C)c(=O)n6C5CCC(=O)NC5=O)C(F)(F)C4)CC3)cn2cc1C(=O)Nc1cccc(C(F)F)n1 (stereo partly shown) [Example 29, N-[6-(difluoromethyl)-2-pyridyl]-2-[4-[[4-[1-(2,6-dioxo-3-piperidyl)-3-methyl-2-oxo-benzimidazol-5-yl]-3,3-difluoro-1-piperidyl]methyl]cyclohexyl]-7-isopropoxy-imidazo[1,2-a]pyridine-6-carboxamide] | 10 to 100 nM |
